Measured values published in ChEMBL document CHEMBL1142810, “Discovery of a potent and selective 5-ht5A receptor antagonist by high-throughput chemistry” (Bioorg Med Chem Lett, 2005).

Experiments:
[1] = molecular target: T1, 5-hydroxytryptamine receptor 5A (Homo sapiens, UniProt P47898); test: Binding affinity towards human 5-hydroxytryptamine receptor 5A expressed in CHO cells using the radioligand [3H]LSD; type: cell-based
[2] = Half life in guinea pig at a dose of 3 mg/kg upon subcutaneous administration; type: ADME, organism-based, Cavia porcellus; design: dose 3 mg/kg, route subcutaneous; details: in vivo, sc
[3] = Peak blood concentration in guinea pig at a dose of 3 mg/kg upon oral administration; type: ADME, organism-based, Cavia porcellus; design: dose 3 mg/kg, route oral
[4] = Blood clearance in guinea pig at a dose of 1 mg/kg upon intravenous administration; type: ADME, organism-based, Cavia porcellus; design: dose 1 mg/kg, route intravenous
[5] = molecular target: Sodium-dependent serotonin transporter (Homo sapiens, UniProt P31645); test: Binding affinity towards human serotonin transporter expressed in LLCPK cells using the radioligand [3H]citalopram; type: cell-based
[6] = Half life in guinea pig at a dose of 1 mg/kg upon intravenous administration; type: ADME, organism-based, Cavia porcellus; design: dose 1 mg/kg, route intravenous; details: in vivo
[7] = Half life in guinea pig at a dose of 3 mg/kg upon oral administration; type: ADME, organism-based, Cavia porcellus; design: dose 3 mg/kg, route oral; details: in vivo
[8] = Bioavailability in guinea pig at a dose of 3 mg/kg upon subcutaneous administration; type: ADME, organism-based, Cavia porcellus; details: in vivo, sc
[9] = Volume of distribution in guinea pig at a dose of 1 mg/kg upon intravenous administration; type: ADME, organism-based, Cavia porcellus; design: dose 1 mg/kg, route intravenous; details: in vivo, read-out: Vdss
[10] = Peak blood concentration in guinea pig at a dose of 3 mg/kg upon subcutaneous administration; type: ADME, organism-based, Cavia porcellus; design: dose 3 mg/kg, route subcutaneous; details: sc
[11] = Bioavailability in guinea pig at a dose of 3 mg/kg upon oral administration; type: ADME, organism-based, Cavia porcellus; details: in vivo
[12] = molecular target: T1, 5-hydroxytryptamine receptor 5A; test: 5-CT-induced stimulation of [35S]GTP-gamma-S, binding to 5-Hydroxytryptamine receptor 5A expressed in HEK 293 cells with compound at 1 uM; type: functional, cell-based; details: HEK293

T1 sequence (P47898 whole entry): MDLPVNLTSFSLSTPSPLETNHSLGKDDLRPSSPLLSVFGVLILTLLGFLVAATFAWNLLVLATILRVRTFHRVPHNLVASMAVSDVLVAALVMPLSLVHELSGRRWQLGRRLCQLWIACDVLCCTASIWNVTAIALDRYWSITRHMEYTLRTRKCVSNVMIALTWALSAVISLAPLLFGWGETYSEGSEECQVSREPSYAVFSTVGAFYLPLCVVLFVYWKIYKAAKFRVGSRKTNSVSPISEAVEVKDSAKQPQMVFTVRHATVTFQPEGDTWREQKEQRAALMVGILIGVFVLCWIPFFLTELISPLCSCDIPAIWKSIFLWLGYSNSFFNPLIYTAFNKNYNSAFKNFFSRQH
Sequence of Sodium-dependent serotonin transporter (P31645 whole entry): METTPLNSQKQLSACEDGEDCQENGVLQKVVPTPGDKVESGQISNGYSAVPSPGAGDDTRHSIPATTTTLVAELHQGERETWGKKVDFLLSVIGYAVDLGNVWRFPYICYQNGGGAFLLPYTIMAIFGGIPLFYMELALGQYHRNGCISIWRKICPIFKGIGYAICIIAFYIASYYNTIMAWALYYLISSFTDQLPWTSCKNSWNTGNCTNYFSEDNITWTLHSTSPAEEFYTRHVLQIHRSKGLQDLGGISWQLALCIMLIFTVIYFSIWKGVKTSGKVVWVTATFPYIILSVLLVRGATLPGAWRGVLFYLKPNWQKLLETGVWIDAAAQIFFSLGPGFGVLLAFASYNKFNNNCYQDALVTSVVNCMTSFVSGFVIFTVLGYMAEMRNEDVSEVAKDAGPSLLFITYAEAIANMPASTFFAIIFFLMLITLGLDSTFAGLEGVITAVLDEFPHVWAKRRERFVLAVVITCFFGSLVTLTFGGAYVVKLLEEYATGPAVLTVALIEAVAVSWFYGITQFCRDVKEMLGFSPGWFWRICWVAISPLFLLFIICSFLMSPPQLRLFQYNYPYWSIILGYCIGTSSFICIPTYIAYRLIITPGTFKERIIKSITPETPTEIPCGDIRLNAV

## COc1cccc(CCN(Cc2ccc(-c3ccc(CNCCc4ccccc4)cc3)cc2)C(=O)/C=C/c2ccccc2)c1
[1]
  Ki: 501 nM

## CN(C)CCN(Cc1ccc(-c2ccc(CNCCc3ccccc3)cc2)cc1)C(=O)CCC1CCCC1.Cl.Cl
[2]
  half-life: 2.2 h
[3]
  Cmax: 20 ng/mL
[4]
  clearance: 22 mL/min/kg
[5]
  Ki: 25.1 nM
[6]
  half-life: 3.5 h
[7]
  half-life: 3.9 h
[8]
  bioavailability: 63%
[9]
  Vd: 6.1 L/kg
[10]
  Cmax: 388 ng/mL
[11]
  bioavailability: 4%

## CN(C)CCN(Cc1ccc(-c2ccc(CNCCc3ccccc3)cc2)nc1)C(=O)CCC1CCCC1
[1]
  Ki: 31.6 nM

## CN(C)CCN(Cc1ccc(-c2ccc(CNC3Cc4ccccc4C3)cc2)cc1)C(=O)CCC1CCCC1
[1]
  Ki: 251 nM

## O=C(/C=C/c1ccccc1)N(Cc1ccc(-c2ccc(CNCc3ccc4c(c3)OCO4)cc2)cc1)Cc1cccnc1
[1]
  Ki: 1000 nM

## CN(C)CCN(Cc1ccc(-c2ccc(CNCCc3ccccn3)cc2)cc1)C(=O)CCC1CCCC1
[1]
  Ki: 31.6 nM

## COCCNCc1ccc(-c2ccc(CN(Cc3cccnc3)C(=O)/C=C/c3ccccc3)cc2)cc1
[1]
  Ki: 6310 nM

## CN(C)CCN(Cc1ccc(-c2ccc(CNCCc3ccccc3)cc2)cc1)C(=O)CCC1CCCC1
[12]
  pKb: 8

## O=C(c1ccc2c(c1)OCO2)N(Cc1ccc(-c2ccc(CNCCc3ccccc3)cc2)cc1)Cc1cccnc1
[1]
  Ki: 200 nM

## CN(C)CCN(Cc1ccc(-c2ccc(CNCCc3ccccc3)cn2)cc1)C(=O)/C=C/c1ccccc1
[1]
  Ki: 5.01 nM

## CN(C)CCN(Cc1ccc(-c2ccc(CNCCc3ccccc3)cc2)cc1)C(=O)Nc1ccccc1
[1]
  Ki: 398 nM

## c1ccc(CCNCc2ccc(-c3cccc(CNC4CCN(Cc5ccccc5)CC4)c3)cc2)cc1
[1]
  Ki: 200 nM
